These are literature values, as cited in US7863316B2, “Extended release formulation of Levetiracetam” (UCB Pharma S.A., priority 2005, dated 2011).

For data set [1] the following is noted: three different pH media, immediate release tablet.
Experiment in data set [2]: not given
This is another data set of the same source.

Molecules are shown by their SMILES.

Turning to `CC[C@@H](C(N)=O)N1CCCC1=O` [Levetiracetam, (−)-(S)-α-ethyl-2-oxo-1-pyrrolidine acetamide], the “tablet amount released in 15 minutes” value in data set [1] was > 85%. Where the note is “acetonitrile”, the solubility in acetonitrile was 5.7 g/100 mL. Moreover, the solubility in chloroform (chloroform) was 65.3 g/100 mL. For the same compound, under “ethanol”, the solubility in ethanol is given as 16.5 g/100 mL. In addition, the solubility in methanol (methanol) is 53.6 g/100 mL. The solubility in n-hexane entry (n-hexane) was “practically insoluble”. In addition, the aqueous solubility (water) was 104 g/100 mL. Further, the “time to steady state kinetics” value in data set [2] (after multiple twice daily dosing) is listed as 2 days. For the same compound, in data set [2] (in vivo), the “bound to plasma proteins” value is “less than 10%”, the renal clearance is 0.6 mL/min/kg, the total body clearance is 0.9 mL/min/kg and the volume of distribution was 0.6 L/kg. Also, in data set [2] (with food), the “decrease of cmax by food” value is given as 20% and the “delay of Tmax by food” value is 1.5 h.
